The values that follow come from patent EP1455790B1, “USE OF PYRIDINE-2,4-DICARBOXYLIC ACID DIAMIDES AND OF PYRIMIDINE-4,6-DICARBOXYLIC ACID DIAMIDES FOR SELECTIVE COLLAGENASE INHIBITION” (Sanofi-Aventis Deutschland GmbH, priority 2001, dated 2003).

This experiment has as its target T1, katalytischen Domäne der humanen Kollagenase -3(MMP-13) (Homo sapiens, UniProt P45452).
T1 construct: Die Enzymlösung enthält 1,67 µg/mL der Enzymdomäne; purchased INVITEK, Berlin 30100 803
The experiment in a line: Enzymatic activity of the catalytic domain of human collagenase-3 (MMP-13), fluorogenic substrate. The class given is biochemical.

The structures appear in SMILES notation. Where two headings read alike, the source gives them in different places.

Protocol: Aktivierung des Proenzyms: 2 Volumenanteile Proenzym werden mit 1 Volumenanteil APMA-Lösung bei 37 °C für 1,5 Stunden inkubiert. Die APMA-Lösung wird aus einer 10 mmol/L p-Aminophenyl-Mercuric Acetate Lösung in 0,1 mmol/L NaOH durch Verdünnen mit 3 Volumenteile Tris/HCl Puffer pH7,5 (siehe unten) hergestellt. Der pH-Wert wird durch Zugabe von 1 mmol/L HCl zwischen 7;0 und 7,5 eingestellt. Nach der Aktivierung des Enzyms wird dieses mit dem Tris/HCl Puffer auf eine Konzentration von 1,67 µg/mL verdünnt.
Zur Messung der Enzymaktivität werden 10 µL Enzymlösung mit 10 µL einer 3%igen (v/v) gepufferten Dimethylsulfoxid-Lösung (Reaktion 1) für.15 Minuten inkubiert. Zur Messung der Enzyminhibitoraktivität werden 10 µL Enzymlösung mit 10 µL einer 3%igen (v/v) gepufferten Dimethylsulfoxid-Lösung, die den Enzyminhibitor enthält, inkubiert (Reaktion 2).
Die Enzymaktivität wird dargestellt als Extinktionszunahme/Minute. […] Die Pufferlösung enthält 0,05% Brij (Sigma, Deisenhofen, Deutschland) sowie 0,1 mol/L Tris/HCI, 0,1 mol/L NaCI, 0,01 mol/L CaCl2 (pH=7,5). Die Enzymlösung enthält 1,67 µg/mL der Enzymdomäne. Die Substratlösung enthält 0,75 mmol/L des fluorogenen Substrates (7-Methoxycoumarin-4-yl)acetyl-Pro-Leu-Gly-Leu-3-(2',4'-dinitrophenyl)-L-2,3-diaminopropionyl-Ala-Arg-NHz (Bachem, Heidelberg, Deutschland).

Take `CCNC(=O)c1cc(C(=O)NCC)ncn1` [Pyrimidin-4,6-dicarbonsäurediethylamid]: the IC50 (usually the concentration needed to halve the response being measured) (comparative example, same method as Table 4, read-out: IC50-Wertes für die Inhibition der humanen Kollagenase -3 (MMP-13)) was determined as 90 µM.

On to `O=C(NCc1ccccc1)c1cc(C(=O)NCc2ccccc2)ncn1` [Beispiel 1, Pyrimidin-4,6-dicarbonsäure-dibenzylamid], for which the IC50 (catalytic domain, APMA-activated pro-enzyme, Tris/HCl buffer pH 7,5, read-out: IC50 MMP13) stood at 0.4 µM.
